In patent US20190374627A1, “TARGET PEPTIDES FOR CANCER THERAPY AND DIAGNOSTICS” (priority 2016, published 2019):
Square brackets hold non-standard residues; d marks the D form. Ends that are not written are not given here. pY = N[C@@H](Cc1ccc(OP(=O)(O)O)cc1)C(=O)O; pS = N[C@@H](COP(=O)(O)O)C(=O)O

Legend:
[1] = test system: expanded lymphocyte cultures from deceased donor livers, cirrhotic livers and HCC; experiment: ICS for MHC-I-pP reactivity of liver-derived lymphocyte cultures after phosphopeptide-specific expansion; format: cell-based, human; conditions: for ppCTL response, Deceased Donor Liver Do 2 / ppCTL response, Deceased Donor Liver Do 3 / ppCTL response, Deceased Donor Liver Do 4 / ppCTL response, Deceased Donor Liver Do 6 / ppCTL response, End-stage Liver Cirrhosis IHL 11 / ppCTL response, End-stage Liver Cirrhosis IHL 12 / ppCTL response, End-stage Liver Cirrhosis IHL 13 / ppCTL response, End-stage Liver Cirrhosis IHL 15 / ppCTL response, HCC Distal HCC 1 / ppCTL response, HCC Tumor HCC 1 / ppCTL response, HCC Distal HCC 4 / ppCTL response, HCC Distal HCC 9 / ppCTL response, HCC Tumor HCC 9 / ppCTL response, HCC Distal HCC 12: pP-specifically expanded culture; for ppCTL response, HCC Distal HCC 1: HCC 1 Distal; for ppCTL response, HCC Tumor HCC 1: HCC 1 Tumor; for ppCTL response, HCC Distal HCC 4: HCC 4 Distal; for ppCTL response, HCC Distal HCC 9: HCC 9 Distal; for ppCTL response, HCC Tumor HCC 9: HCC 9 Tumor; for ppCTL response, HCC Distal HCC 12: HCC 12 Distal
[2] = test system: expanded TIL / IHL cultures; experiment: ICS for MHC-I-pP reactivity of liver-derived lymphocyte cultures after unspecific rapid expansion protocol (REP); format: cell-based, human
[3] = test system: CD8^+ T cells (PBMCs); experiment: Intracellular cytokine staining (ICS) of PBMCs after 7 days of stimulation with MHC-I-pP (healthy donors, HH patients); format: cell-based, human; conditions: for Reactive CD8^+ T cell population, HH2: HH patient HH2; for Reactive CD8^+ T cell population, HH3: HH patient HH3; for Reactive CD8^+ T cell population, HH6: HH patient HH6; for Reactive CD8^+ T cell population, HH8: HH patient HH8; for Reactive CD8^+ T cell population, HD1: Healthy donor HD1; for Reactive CD8^+ T cell population, HD4: Healthy donor HD4; for Reactive CD8^+ T cell population, HD5: Healthy donor HD5; for Reactive CD8^+ T cell population, HH11: HH patient HH11
Description: From this, CD8^+ T cell responses against newly identified MHC class I-associated phosphopeptides in healthy individuals and patients with chronic liver disease were investigated. Twenty-one of the newly identified HCC-associated HLA-A*0201-restricted phosphopeptides were selected (see Table 17) for further immunological testing in HLA-A*0201 positive patients. MHC-I-pP-specific cytotoxic CD8^+ T cell responses (ppCTL) were assessed using intracellular cytokine staining (ICS) and several cytokines and surface markers were assessed in parallel. After 7 days of stimulation with the respective MHC-I-pP and no other cytokines, CD3- and CD8-expressing T cells were stained for at least two different cytokines (IFN-γ, TNF-α) and when required CD107a expression as a marker for their cytotoxic potential.
First, peripheral blood mononuclear cells (PBMCs) from healthy donors and patients with hereditary hemochromatosis (HH) were analyzed. HH is a chronic liver disease characterized by excessive intestinal absorption of dietary iron resulting in a pathological deposition of iron in the liver. PBMCs or lymphocytes from liver tissue were extracted and specifically stimulated with (phospho-) peptides for 7 days before intracellular cytokine staining (ICS). Doublets and dead cells, using a fixable viability dye, were excluded. Lymphocytes were gated on CD3^+ and CD8^+ double positive cells and were analysed for expression of IFNγ, TNFα-, and CD107a.

[4] = test system: unexpanded lymphocyte cultures (CD8^+ T cells); experiment: ICS for MHC-I-pP reactivity of lymphocyte cultures without expansion (Table 23, No Expansion)

Substance | Reactive CD8^+ T cells, pP-specific Expansion, Do2 [1] | Reactive CD8^+ T cells, pP-specific Expansion, Do4 [1] | Reactive CD8^+ T cells, pP-specific Expansion, HH6 [1] | ppCTL response, Deceased Donor Liver Do 2 [1] | ppCTL response, Deceased Donor Liver Do 3 [1] | ppCTL response, Deceased Donor Liver Do 4 [1] | ppCTL response, Deceased Donor Liver Do 6 [1] | ppCTL response, End-stage Liver Cirrhosis IHL 11 [1] | ppCTL response, End-stage Liver Cirrhosis IHL 12 [1] | ppCTL response, End-stage Liver Cirrhosis IHL 13 [1] | ppCTL response, End-stage Liver Cirrhosis IHL 15 [1] | ppCTL response, HCC Distal HCC 1 [1] | ppCTL response, HCC Tumor HCC 1 [1] | ppCTL response, HCC Distal HCC 4 [1] | ppCTL response, HCC Distal HCC 9 [1] | ppCTL response, HCC Tumor HCC 9 [1] | ppCTL response, HCC Distal HCC 12 [1] | Reactive CD8^+ T cells, Non-specific Expansion, Do2 [2] | Reactive CD8^+ T cells, Non-specific Expansion, Do4 [2] | Reactive CD8^+ T cells, Non-specific Expansion, HH6 [2] | further results
yLQSRYYRA: HIPK3 phosphopeptide, HLA-A*0201 ([pY]LQSRYYRA; listed as Homo sapiens) | 2 (2.5-5.0% reactive CD8^-+ T cells) | 0 (<0.25% reactive CD8^-+ T cells) | 0 (<0.25% reactive CD8^-+ T cells) | 2 (2.5-5.0% reactive CD8-+ T cells) | 0 (<0.25% reactive CD8-+ T cells) | 0 (<0.25% reactive CD8-+ T cells) | 0 (<0.25% reactive CD8-+ T cells) | 0 (<0.25% reactive CD8-+ T cells) | 0 (<0.25% reactive CD8-+ T cells) | 0 (<0.25% reactive CD8-+ T cells) | 0 (<0.25% reactive CD8-+ T cells) | 0 (<0.25% reactive CD8-+ T cells) | 0 (<0.25% reactive CD8-+ T cells) | 0 (<0.25% reactive CD8-+ T cells) | 0 (<0.25% reactive CD8-+ T cells) | 1 (0.25-2.5% reactive CD8-+ T cells) | 0 (<0.25% reactive CD8-+ T cells) | 0 (<0.25% reactive CD8^-+ T cells) | 0 (<0.25% reactive CD8^-+ T cells) | 0 (<0.25% reactive CD8^-+ T cells) | Reactive CD8^+ T cell population, HH2 [3]: 0 (<0.25% reactive CD8^-+ T cells); Reactive CD8^+ T cell population, HH3 [3]: 0 (<0.25% reactive CD8^-+ T cells); Reactive CD8^+ T cell population, HH6 [3]: 1 (0.25-2.5% reactive CD8^-+ T cells); Reactive CD8^+ T cell population, HH8 [3]: 0 (<0.25% reactive CD8^-+ T cells); Reactive CD8^+ T cell population, HD1 [3]: 0 (<0.25% reactive CD8^-+ T cells); Reactive CD8^+ T cell population, HD4 [3]: 0 (<0.25% reactive CD8^-+ T cells); Reactive CD8^+ T cell population, HD5 [3]: 0 (<0.25% reactive CD8^-+ T cells); Reactive CD8^+ T cells, No Expansion, HH6 [4]: 1 (0.25-2.5% reactive CD8^-+ T cells)
VMIGsPKKV: TNS3 phosphopeptide, HLA-A*0201 (VMIG[pS]PKKV; listed as Homo sapiens) | 1 (0.25-2.5% reactive CD8^-+ T cells) | 0 (<0.25% reactive CD8^-+ T cells) | 0 (<0.25% reactive CD8^-+ T cells) | 2 (2.5-5.0% reactive CD8-+ T cells) | 0 (<0.25% reactive CD8-+ T cells) | 0 (<0.25% reactive CD8-+ T cells) | 0 (<0.25% reactive CD8-+ T cells) | 0 (<0.25% reactive CD8-+ T cells) | 0 (<0.25% reactive CD8-+ T cells) | 0 (<0.25% reactive CD8-+ T cells) | 0 (<0.25% reactive CD8-+ T cells) | 0 (<0.25% reactive CD8-+ T cells) | 0 (<0.25% reactive CD8-+ T cells) | 0 (<0.25% reactive CD8-+ T cells) | 0 (<0.25% reactive CD8-+ T cells) | 0 (<0.25% reactive CD8-+ T cells) | 0 (<0.25% reactive CD8-+ T cells) | 0 (<0.25% reactive CD8^-+ T cells) | 0 (<0.25% reactive CD8^-+ T cells) | 0 (<0.25% reactive CD8^-+ T cells) | Reactive CD8^+ T cell population, HH2 [3]: 0 (<0.25% reactive CD8^-+ T cells); Reactive CD8^+ T cell population, HH3 [3]: 0 (<0.25% reactive CD8^-+ T cells); Reactive CD8^+ T cell population, HH6 [3]: 0 (<0.25% reactive CD8^-+ T cells); Reactive CD8^+ T cell population, HH8 [3]: 0 (<0.25% reactive CD8^-+ T cells); Reactive CD8^+ T cell population, HH10 ([3]; HH patient HH10): 1 (0.25-2.5% reactive CD8^-+ T cells); Reactive CD8^+ T cell population, HH11 [3]: 0 (<0.25% reactive CD8^-+ T cells); Reactive CD8^+ T cell population, HD1 [3]: 0 (<0.25% reactive CD8^-+ T cells); Reactive CD8^+ T cell population, HD2 ([3]; Healthy donor HD2): 0 (<0.25% reactive CD8^-+ T cells); Reactive CD8^+ T cell population, HD3 ([3]; Healthy donor HD3): 0 (<0.25% reactive CD8^-+ T cells); Reactive CD8^+ T cell population, HD4 [3]: 0 (<0.25% reactive CD8^-+ T cells); Reactive CD8^+ T cell population, HD5 [3]: 0 (<0.25% reactive CD8^-+ T cells); Reactive CD8^+ T cells, No Expansion, Do4 ([4]; Do4): 0 (<0.25% reactive CD8^-+ T cells); Reactive CD8^+ T cells, No Expansion, HH6 [4]: 0 (<0.25% reactive CD8^-+ T cells)
RTFsPTYGL: SYNM phosphopeptide, HLA-A*0201 (RTF[pS]PTYGL; listed as Homo sapiens) | 0 (<0.25% reactive CD8^-+ T cells) | 0 (<0.25% reactive CD8^-+ T cells) | 3 (5-7.5% reactive CD8^-+ T cells) | 0 (<0.25% reactive CD8-+ T cells) | 0 (<0.25% reactive CD8-+ T cells) | 0 (<0.25% reactive CD8-+ T cells) | 0 (<0.25% reactive CD8-+ T cells) | 0 (<0.25% reactive CD8-+ T cells) | 0 (<0.25% reactive CD8-+ T cells) | 0 (<0.25% reactive CD8-+ T cells) | 1 (0.25-2.5% reactive CD8-+ T cells) | 0 (<0.25% reactive CD8-+ T cells) | 0 (<0.25% reactive CD8-+ T cells) | 0 (<0.25% reactive CD8-+ T cells) | 0 (<0.25% reactive CD8-+ T cells) | 0 (<0.25% reactive CD8-+ T cells) | 0 (<0.25% reactive CD8-+ T cells) | 0 (<0.25% reactive CD8^-+ T cells) | 0 (<0.25% reactive CD8^-+ T cells) | 0 (<0.25% reactive CD8^-+ T cells) | Reactive CD8^+ T cell population, HH2 [3]: 0 (<0.25% reactive CD8^-+ T cells); Reactive CD8^+ T cell population, HH3 [3]: 0 (<0.25% reactive CD8^-+ T cells); Reactive CD8^+ T cell population, HH6 [3]: 0 (<0.25% reactive CD8^-+ T cells); Reactive CD8^+ T cell population, HH8 [3]: 0 (<0.25% reactive CD8^-+ T cells); Reactive CD8^+ T cell population, HH11 [3]: 0 (<0.25% reactive CD8^-+ T cells); Reactive CD8^+ T cell population, HD1 [3]: 0 (<0.25% reactive CD8^-+ T cells); Reactive CD8^+ T cell population, HD4 [3]: 0 (<0.25% reactive CD8^-+ T cells); Reactive CD8^+ T cell population, HD5 [3]: 0 (<0.25% reactive CD8^-+ T cells); Reactive CD8^+ T cells, No Expansion, HH6 [4]: 1 (0.25-2.5% reactive CD8^-+ T cells)
